One assay deals with FGFR1 (h) (Homo sapiens, UniProt P11362). Put plainly: FGFR1 (enzymatic assay), TR-FRET. The class given is biochemical. The following applies: read-out: FGFR 1 pIC50 (converted).
In the next assay the target is FGFR2 (h) (Homo sapiens, UniProt P21802). The assay can be described thus: FGFR2 (enzymatic assay), TR-FRET. It is filed as biochemical. The following applies: enzymatic assay, read-out: FGFR 2 pIC50 (converted). As for the experimental part: In a final reaction volume of 30 μL, FGFR2 (h) (150 ng/ml) was incubated with 50 mM HEPES pH 7.5, 6 mM MnCl2, 1 mM DTT, 0.1 mM Na3VO4, 0.01% Triton-X-100, 500 nM Btn-Flt3 and 0.4 μM ATP in the presence of compound (1% DMSO final).

Another assay deals with FGFR3 (h) (Homo sapiens, UniProt P22607). The assay can be described thus: FGFR3 (enzymatic assay), TR-FRET. The class given is biochemical. The following applies: read-out: FGFR 3 pIC50 (converted). The source says:
Time-Resolved Fluorescence Resonance Energy Transfer (TR-FRET) signal (ex340 nm.
Background: In TR-FRET formats the signal depends on donor and acceptor labels being close together.

The next assay addresses FGFR4 (h) (Homo sapiens, UniProt P22455). The assay can be described thus: FGFR4 (enzymatic assay), TR-FRET. The class given is biochemical. The following applies: FGFR 4 pIC50, enzymatic assay.
Another assay concerns the target KDR (h) (Homo sapiens, UniProt P35968). Put plainly: KDR (VEGFR2) (enzymatic assay), TR-FRET. The class given is biochemical. The following applies: read-out: VEGFR 2 (KDR) pIC50 (converted). As for the experimental part: KDR (VEGFR2) (Enzymatic Assay)
In a final reaction volume of 30 μL, KDR (h) (150 ng/ml) was incubated with 50 mM HEPES pH 7.5, 6 mM MnCl2, 1 mM DTT, 0.1 mM Na3VO4, 0.01% Triton-X-100, 500 nM Btn-Flt3 and 3 μM ATP in the presence of compound (1% DMSO final). After incubation for 120 minutes at room temperature the reaction was stopped with 2.27 nM EU-anti P-Tyr, 7 mM EDTA, 31.25 nM SA-XL-665 and 0.02% BSA which was present for 60 minutes at room temperature. Time-Resolved Fluorescence Resonance Energy Transfer (TR-FRET) signal (ex340 nm. Em 620 nm, em 655 nm) was measured afterwards and results are expressed in RFU (Relative Fluorescence Units).

For assay [1], the target named is T1, Ba/F3-FGFR1-transfected cells (Homo sapiens, UniProt P11362).
T1 construct: BAF3-FGFR1 (MIN IL3) pIC50; other: minus IL3
Put plainly: Ba/F3-FGFR1 (minus IL3) cellular proliferation assay, Alamar Blue. The class given is cell-based. The procedure: (§1) Ba/F3-FGFR1 (Minus IL3 or Plus IL3) (Cellular Proliferation Assay)
(§2) In a 384 well plate, 100 nl of compound dilution in DMSO was sprayed before adding 50 μl cell culture medium (phenol red free RPMI-1640, 10% FBS, 2 mM L-Glutamine and 50 μg/ml Gentamycin) containing 20000 cells per well of Ba/F3-FGFR1-transfected cells. Cells were put in an incubator at 37° C. and 5% CO2. After 24 hours, 10 μl of Alamar Blue solution (0.5 mM K3Fe(CN)6, 0.5 mM K4Fe(CN)6, 0.15 mM Resazurin and 100 mM Phosphate Buffer) was added to the wells, incubated for 4 hours at 37° C. and 5% CO2 before RFU's (Relative Fluorescence Units) (ex. 540 nm., em. 590 nm.) were measured in a fluororescence plate reader.
For orientation: Resazurin is reduced to fluorescent resorufin, in cell work by metabolically active cells.

Assay [2] has as its system Ba/F3-FGFR1-transfected cells. Put plainly: Ba/F3-FGFR1 (plus IL3) cellular proliferation assay, counterscreen with 10 ng/ml murine IL3. The following applies: plus IL3 (10 ng/ml murine IL3, counterscreen). The class given is cell-based. The procedure: as §1, §2
(§3) As a counterscreen the same experiment was performed in the presence of 10 ng/ml murine IL3.

Assay [3] addresses T2, Ba/F3-FGFR3-transfected cells (Homo sapiens, UniProt P22607).
T2 construct: BAF3-FGFR3 (MIN IL3) pIC50; other: minus IL3
Put plainly: Ba/F3-FGFR3 (minus IL3) cellular proliferation assay, Alamar Blue. It is filed as cell-based. As for the experimental part: (§4) Ba/F3-FGFR3 (Minus IL3 or Plus IL3) (Cellular Proliferation Assay)
as §2, with “Ba/F3-FGFR3-transfected” for “Ba/F3-FGFR1-transfected”, “reader. […]” for “reader.”

In assay [4] the test system is Ba/F3-FGFR3-transfected cells. The assay can be described thus: Ba/F3-FGFR3 (plus IL3) cellular proliferation assay, counterscreen with 10 ng/ml murine IL3. The class given is cell-based. The conditions noted are these: plus IL3 (10 ng/ml murine IL3, counterscreen). The procedure:
as §4
as §2, with “Ba/F3-FGFR3-transfected” for “Ba/F3-FGFR1-transfected”
as §3

The target of assay [5] is T3, Ba/F3-KDR-transfected cells (Homo sapiens, UniProt P35968).
T3 construct: BAF3-KDR (MIN IL3) pIC50; other: minus IL3
Put plainly: Ba/F3-KDR (minus IL3) cellular proliferation assay, Alamar Blue. The class given is cell-based. As for the experimental part: (§5) Ba/F3-KDR (Minus IL3 or Plus IL3) (Cellular Proliferation Assay)
as §2, with “n1” for “nl”, “Ba/F3-KDR-transfected” for “Ba/F3-FGFR1-transfected”, “reader. […]” for “reader.”

Assay [6] concerns Ba/F3-KDR-transfected cells. Put plainly: Ba/F3-KDR (plus IL3) cellular proliferation assay, counterscreen with 10 ng/ml murine IL3. The class given is cell-based. The following applies: plus IL3 (10 ng/ml murine IL3, counterscreen). As for the experimental part:
as §5
as §2, with “n1” for “nl”, “Ba/F3-KDR-transfected” for “Ba/F3-FGFR1-transfected”
as §3

For assay [7], the target named is Ba/F3-FGFR4-transfected cells (Homo sapiens, UniProt P22455). The assay can be described thus: Ba/F3-FGFR4 cellular proliferation assay, Alamar Blue. It is filed as cell-based. As for the experimental part: Ba/F3-FGFR4 (Cellular Proliferation Assay)
as §2, with “n1” for “nl”, “Ba/F3-FGFR4-transfected” for “Ba/F3-FGFR1-transfected”

Setting [8] is: average values if tested multiple times.

Structures can show the parent of a compound that is named as a salt. Where two headings read alike, the source gives them in different places.

The record followed here is patent US9309242B2, “Substituted pyrido[2,3-b]pyrazines as FGFR kinase inhibitors” (priority 2011, dated 2016).

T2 sequence (P22607 whole entry, change not shown): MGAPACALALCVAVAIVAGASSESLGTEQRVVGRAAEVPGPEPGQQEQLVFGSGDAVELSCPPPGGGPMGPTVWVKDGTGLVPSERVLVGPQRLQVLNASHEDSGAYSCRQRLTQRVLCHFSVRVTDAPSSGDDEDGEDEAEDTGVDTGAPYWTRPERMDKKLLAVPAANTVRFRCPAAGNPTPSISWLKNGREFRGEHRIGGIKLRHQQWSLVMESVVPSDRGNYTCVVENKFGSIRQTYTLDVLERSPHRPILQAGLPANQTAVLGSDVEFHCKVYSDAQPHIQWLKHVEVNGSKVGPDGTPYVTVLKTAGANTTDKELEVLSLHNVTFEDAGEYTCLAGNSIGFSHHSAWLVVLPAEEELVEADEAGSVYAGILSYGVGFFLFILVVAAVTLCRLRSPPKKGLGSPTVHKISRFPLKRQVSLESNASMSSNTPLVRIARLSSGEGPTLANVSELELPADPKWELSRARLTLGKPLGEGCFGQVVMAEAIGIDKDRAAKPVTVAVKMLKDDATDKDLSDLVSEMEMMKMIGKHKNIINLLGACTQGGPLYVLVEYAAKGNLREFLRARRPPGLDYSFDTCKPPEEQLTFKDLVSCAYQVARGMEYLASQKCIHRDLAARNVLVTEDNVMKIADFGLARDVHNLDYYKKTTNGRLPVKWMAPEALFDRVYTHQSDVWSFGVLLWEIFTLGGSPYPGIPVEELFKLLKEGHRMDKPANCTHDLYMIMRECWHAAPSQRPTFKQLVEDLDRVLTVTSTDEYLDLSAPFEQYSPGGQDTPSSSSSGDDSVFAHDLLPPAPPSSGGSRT
FGFR3 (h), sequence (P22607 23-806): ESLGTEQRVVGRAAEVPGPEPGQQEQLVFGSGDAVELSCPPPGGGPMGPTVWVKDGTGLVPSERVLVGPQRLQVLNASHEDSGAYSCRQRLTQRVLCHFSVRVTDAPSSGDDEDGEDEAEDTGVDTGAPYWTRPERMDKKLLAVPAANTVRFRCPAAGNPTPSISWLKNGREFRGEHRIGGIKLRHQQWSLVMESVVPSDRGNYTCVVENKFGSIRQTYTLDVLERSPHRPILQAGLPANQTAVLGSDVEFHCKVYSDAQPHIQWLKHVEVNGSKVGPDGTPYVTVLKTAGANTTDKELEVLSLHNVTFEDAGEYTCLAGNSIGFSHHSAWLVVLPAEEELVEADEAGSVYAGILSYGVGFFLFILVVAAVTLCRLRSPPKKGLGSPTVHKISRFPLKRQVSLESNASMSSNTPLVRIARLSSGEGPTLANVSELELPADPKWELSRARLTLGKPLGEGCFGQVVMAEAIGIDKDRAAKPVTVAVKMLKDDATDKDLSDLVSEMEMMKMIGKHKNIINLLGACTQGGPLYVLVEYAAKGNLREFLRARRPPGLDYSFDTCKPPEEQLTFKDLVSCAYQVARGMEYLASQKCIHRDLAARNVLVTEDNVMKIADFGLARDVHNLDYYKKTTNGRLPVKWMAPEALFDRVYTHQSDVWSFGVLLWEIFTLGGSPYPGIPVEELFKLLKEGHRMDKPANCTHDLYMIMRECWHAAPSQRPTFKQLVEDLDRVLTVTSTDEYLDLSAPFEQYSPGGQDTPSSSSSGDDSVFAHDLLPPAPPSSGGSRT
KDR (h), sequence (P35968 20-1356): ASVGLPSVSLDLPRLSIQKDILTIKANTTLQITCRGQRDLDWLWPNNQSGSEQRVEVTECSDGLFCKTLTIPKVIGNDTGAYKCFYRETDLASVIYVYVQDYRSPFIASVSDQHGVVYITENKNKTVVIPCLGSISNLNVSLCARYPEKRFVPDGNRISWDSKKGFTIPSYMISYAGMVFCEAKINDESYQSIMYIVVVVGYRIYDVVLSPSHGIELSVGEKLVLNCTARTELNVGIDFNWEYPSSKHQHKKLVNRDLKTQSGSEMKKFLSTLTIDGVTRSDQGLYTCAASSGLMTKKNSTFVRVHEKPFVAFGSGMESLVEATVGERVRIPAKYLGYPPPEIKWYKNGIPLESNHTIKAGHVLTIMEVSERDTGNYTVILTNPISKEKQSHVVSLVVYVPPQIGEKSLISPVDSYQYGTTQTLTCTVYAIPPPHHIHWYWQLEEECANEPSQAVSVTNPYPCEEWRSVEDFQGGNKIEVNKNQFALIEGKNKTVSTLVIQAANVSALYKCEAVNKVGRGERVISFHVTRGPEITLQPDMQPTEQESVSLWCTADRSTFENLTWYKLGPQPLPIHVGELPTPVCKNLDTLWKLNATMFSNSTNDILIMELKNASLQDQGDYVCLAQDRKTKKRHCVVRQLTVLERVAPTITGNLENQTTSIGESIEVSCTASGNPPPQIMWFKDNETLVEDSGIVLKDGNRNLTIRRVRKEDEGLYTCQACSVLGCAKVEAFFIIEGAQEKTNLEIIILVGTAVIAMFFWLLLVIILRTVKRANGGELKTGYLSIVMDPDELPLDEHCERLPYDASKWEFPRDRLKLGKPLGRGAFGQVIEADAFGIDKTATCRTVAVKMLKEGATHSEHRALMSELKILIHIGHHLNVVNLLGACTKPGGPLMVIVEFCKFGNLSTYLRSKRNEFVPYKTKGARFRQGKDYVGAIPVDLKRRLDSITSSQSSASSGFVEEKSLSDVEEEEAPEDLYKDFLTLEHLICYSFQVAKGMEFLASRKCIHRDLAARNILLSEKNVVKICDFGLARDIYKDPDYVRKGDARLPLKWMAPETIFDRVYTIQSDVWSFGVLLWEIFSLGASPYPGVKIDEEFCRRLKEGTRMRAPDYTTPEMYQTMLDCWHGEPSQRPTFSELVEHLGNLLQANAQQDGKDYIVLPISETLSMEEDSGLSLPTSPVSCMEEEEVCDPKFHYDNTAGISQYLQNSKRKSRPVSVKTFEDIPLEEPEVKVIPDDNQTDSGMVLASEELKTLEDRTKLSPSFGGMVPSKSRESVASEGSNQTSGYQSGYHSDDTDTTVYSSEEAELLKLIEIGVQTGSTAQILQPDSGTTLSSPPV
FGFR4 (h), sequence (P22455 22-802): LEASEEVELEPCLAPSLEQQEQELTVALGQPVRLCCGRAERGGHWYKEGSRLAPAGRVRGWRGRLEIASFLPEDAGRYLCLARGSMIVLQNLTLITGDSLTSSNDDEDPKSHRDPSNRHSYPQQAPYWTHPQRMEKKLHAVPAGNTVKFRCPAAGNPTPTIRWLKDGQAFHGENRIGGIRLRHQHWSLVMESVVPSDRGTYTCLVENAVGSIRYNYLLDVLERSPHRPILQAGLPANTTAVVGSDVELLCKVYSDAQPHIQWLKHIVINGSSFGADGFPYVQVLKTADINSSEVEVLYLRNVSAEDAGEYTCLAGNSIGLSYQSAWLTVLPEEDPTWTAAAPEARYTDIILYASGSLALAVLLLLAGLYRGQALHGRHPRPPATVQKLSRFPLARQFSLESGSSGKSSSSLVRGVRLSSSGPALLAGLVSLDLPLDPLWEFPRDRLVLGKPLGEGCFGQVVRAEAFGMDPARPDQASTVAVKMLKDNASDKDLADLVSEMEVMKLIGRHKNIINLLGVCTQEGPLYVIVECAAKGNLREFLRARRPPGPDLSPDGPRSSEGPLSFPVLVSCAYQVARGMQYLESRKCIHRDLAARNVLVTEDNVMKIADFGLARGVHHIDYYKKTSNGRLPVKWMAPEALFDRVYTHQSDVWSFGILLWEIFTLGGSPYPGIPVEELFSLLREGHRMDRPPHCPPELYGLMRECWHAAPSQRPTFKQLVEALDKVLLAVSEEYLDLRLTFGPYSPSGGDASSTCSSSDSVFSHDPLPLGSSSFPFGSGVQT
FGFR2 (h), sequence (P21802 22-821): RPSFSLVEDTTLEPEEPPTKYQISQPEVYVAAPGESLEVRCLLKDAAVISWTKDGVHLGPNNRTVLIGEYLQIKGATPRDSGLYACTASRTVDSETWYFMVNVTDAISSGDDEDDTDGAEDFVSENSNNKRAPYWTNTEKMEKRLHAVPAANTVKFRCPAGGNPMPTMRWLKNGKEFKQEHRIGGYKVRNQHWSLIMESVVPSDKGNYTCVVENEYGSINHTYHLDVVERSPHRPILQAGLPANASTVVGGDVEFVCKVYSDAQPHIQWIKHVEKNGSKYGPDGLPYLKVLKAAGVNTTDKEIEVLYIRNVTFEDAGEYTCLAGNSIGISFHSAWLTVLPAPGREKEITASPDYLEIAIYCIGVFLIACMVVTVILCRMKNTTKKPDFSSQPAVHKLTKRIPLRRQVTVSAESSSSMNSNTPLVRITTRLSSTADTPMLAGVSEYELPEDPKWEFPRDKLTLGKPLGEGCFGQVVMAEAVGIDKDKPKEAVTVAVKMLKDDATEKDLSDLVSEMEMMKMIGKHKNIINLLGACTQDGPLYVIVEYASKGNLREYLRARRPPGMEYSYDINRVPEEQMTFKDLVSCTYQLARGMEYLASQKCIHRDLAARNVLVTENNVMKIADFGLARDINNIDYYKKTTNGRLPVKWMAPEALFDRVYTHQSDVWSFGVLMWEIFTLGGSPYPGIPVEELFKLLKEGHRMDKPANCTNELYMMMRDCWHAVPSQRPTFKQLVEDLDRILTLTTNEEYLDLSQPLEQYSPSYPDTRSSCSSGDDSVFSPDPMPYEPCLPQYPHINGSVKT

`COc1ccc(Cl)c(N(CC2CCC(=O)N2)c2ccc3ncc(-c4cnn(C)c4)nc3n2)c1Cl` (single isomer, unassigned) [Compound 91]: the IC50 at FGFR1 (h) was 219 nM; on FGFR2 (h), 145 nM; on FGFR3 (h), 138 nM; against FGFR4 (h), greater than 1000 nM; on KDR (h) it was 741 nM. Moreover, the “BAF3-FGFR1 (MIN IL3) pIC50” value in assay [1] is on record as 5.13. In addition, the “BAF3-FGFR1 (PLUS IL3) pIC50” value in assay [2] is less than 5. Further, the “BAF3-FGFR3 (MIN IL3) pIC50” value in [3] was determined as 5.17. In assay [4], the “BAF3-FGFR3 (PLUS IL3) pIC50” value was less than 5. Further, in assay [5], the “BAF3-KDR (MIN IL3) pIC50” value is on record as less than 5. Further, the “BAF3-KDR (PLUS IL3) pIC50” value in [6] is less than 5. Moreover, in assay [7], the “BAF3-FGFR4 pIC50” value is on record as less than 5.

As for `COc1cc(OC)c(F)c(N(CC2CCOC2)c2ccc3ncc(-c4cnn(C)c4)nc3n2)c1` (single isomer, unassigned) [Compound 171], the IC50 is 3.55 nM on FGFR1 (h); 2.57 nM at FGFR2 (h); 1.55 nM at FGFR3 (h); 3.72 nM on FGFR4 (h); roughly 14.5 nM at KDR (h). Further, the “BAF3-FGFR1 (MIN IL3) pIC50” value in assay [1] amounted to 7.10. Besides, the “BAF3-FGFR1 (PLUS IL3) pIC50” value in assay [2] is less than 5. In assay [3], the “BAF3-FGFR3 (MIN IL3) pIC50” value amounted to 7.28. Also, the “BAF3-FGFR3 (PLUS IL3) pIC50” value in assay [4] is reported as less than 5. Further, in [5], the “BAF3-KDR (MIN IL3) pIC50” value is 5.63. For the same molecule, the “BAF3-KDR (PLUS IL3) pIC50” value in [6] was less than 5. The “BAF3-FGFR4 pIC50” value in assay [7] is 6.55.

`COc1cc(OC)c(F)c(N(CC2CCOC2)c2ccc3ncc(-c4cnn(C)c4)nc3n2)c1` (single isomer, unassigned) [Compound 172]: the IC50 is 3.72 nM at FGFR1 (h); 4.47 nM at FGFR2 (h); 3.02 nM on FGFR3 (h); roughly 15.8 nM against FGFR4 (h); 45.7 nM at KDR (h). Besides, the “BAF3-FGFR1 (MIN IL3) pIC50” value in assay [1] is listed as 6.54. In assay [2], the “BAF3-FGFR1 (PLUS IL3) pIC50” value is on record as less than 5. Further, in assay [3], the “BAF3-FGFR3 (MIN IL3) pIC50” value is roughly 7.06. Moreover, in assay [4], the “BAF3-FGFR3 (PLUS IL3) pIC50” value is on record as less than 5. Also, the “BAF3-KDR (MIN IL3) pIC50” value in [5] is 5.35. Moreover, the “BAF3-KDR (PLUS IL3) pIC50” value in assay [6] is on record as less than 5. In addition, the “BAF3-FGFR4 pIC50” value in assay [7] came out at 6.33.

On to `COc1cc(OC)c(F)c(N(Cc2ncc[nH]2)c2ccc3ncc(-c4cnn(C)c4)nc3n2)c1` [23-Sulfate salt], for which the IC50 is 0.589 nM at FGFR1 (h) (setting [8]); 2.09 nM at FGFR2 (h) (setting [8]); 1.12 nM on FGFR3 (h) (setting [8]); 1.26 nM against FGFR4 (h) (setting [8]); 7.94 nM on KDR (h) (setting [8]). Besides, the “BAF3-FGFR1 (MIN IL3) pIC50” value in [1] is on record as 8.94. Also, the “BAF3-FGFR1 (PLUS IL3) pIC50” value in assay [2] is recorded as less than 5. In assay [3], the “BAF3-FGFR3 (MIN IL3) pIC50” value is given as roughly 8.64. In assay [4], the “BAF3-FGFR3 (PLUS IL3) pIC50” value was less than 5. Besides, the “BAF3-KDR (MIN IL3) pIC50” value in assay [5] is 6.51. In assay [6], the “BAF3-KDR (PLUS IL3) pIC50” value was less than 5. In addition, the “BAF3-FGFR4 pIC50” value in assay [7] was 7.88.

As to `COc1cc(OC)c(F)c(N(Cc2ncc[nH]2)c2ccc3ncc(-c4cnn(C)c4)nc3n2)c1` [23-fumarate salt], the IC50 on FGFR1 (h) (setting [8]) is 0.479 nM; on FGFR2 (h) (setting [8]), 1.51 nM; on FGFR3 (h) (setting [8]), roughly 0.891 nM; at FGFR4 (h) (setting [8]) it was 0.794 nM; on KDR (h) (setting [8]), 5.13 nM. Also, the “BAF3-FGFR1 (MIN IL3) pIC50” value in assay [1] is 8.85. The “BAF3-FGFR1 (PLUS IL3) pIC50” value in [2] is reported as less than 5. Besides, the “BAF3-FGFR3 (MIN IL3) pIC50” value in assay [3] is on record as roughly 8.67. In assay [4], the “BAF3-FGFR3 (PLUS IL3) pIC50” value is less than 5. Also, in assay [5], the “BAF3-KDR (MIN IL3) pIC50” value worked out at 6.67. In addition, the “BAF3-KDR (PLUS IL3) pIC50” value in [6] is on record as less than 5. For the same molecule, the “BAF3-FGFR4 pIC50” value in assay [7] is listed as 7.94.

In the case of `COc1cc(OC)c(F)c(N(Cc2ncc[nH]2)c2ccc3ncc(-c4cnn(C)c4)nc3n2)c1` [23-hydrochloric acid salt], the IC50 is 0.437 nM at FGFR1 (h) (setting [8]); 1.41 nM at FGFR2 (h) (setting [8]); 0.776 nM at FGFR3 (h) (setting [8]); 0.851 nM on FGFR4 (h) (setting [8]); 6.76 nM at KDR (h) (setting [8]). Besides, the “BAF3-FGFR1 (MIN IL3) pIC50” value in assay [1] is recorded as 8.81. Also, the “BAF3-FGFR1 (PLUS IL3) pIC50” value in assay [2] is less than 5. In addition, in [3], the “BAF3-FGFR3 (MIN IL3) pIC50” value is roughly 8.58. Also, the “BAF3-FGFR3 (PLUS IL3) pIC50” value in assay [4] was less than 5. In addition, the “BAF3-KDR (MIN IL3) pIC50” value in assay [5] amounted to 6.68. Also, the “BAF3-KDR (PLUS IL3) pIC50” value in assay [6] is recorded as less than 5. Also, in [7], the “BAF3-FGFR4 pIC50” value was found to be 7.98.
